Columns and labels:
Adenosine receptor A1 = target: T1, Adenosine receptor A1 (Homo sapiens, UniProt P30542); assay: Displacement of [3H]CCPA from human A1 adenosine receptor expressed in CHO cells; format: cell-based
T1 sequence (P30542 whole entry): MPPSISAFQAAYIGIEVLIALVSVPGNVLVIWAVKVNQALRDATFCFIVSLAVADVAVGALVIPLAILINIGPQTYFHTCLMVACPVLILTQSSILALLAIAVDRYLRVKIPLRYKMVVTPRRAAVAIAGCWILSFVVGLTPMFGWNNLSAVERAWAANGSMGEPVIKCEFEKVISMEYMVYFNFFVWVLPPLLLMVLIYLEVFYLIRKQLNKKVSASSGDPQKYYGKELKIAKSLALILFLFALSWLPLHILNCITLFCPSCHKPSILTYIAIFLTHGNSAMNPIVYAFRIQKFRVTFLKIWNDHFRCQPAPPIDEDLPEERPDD

Adenosine receptor A2a = Adenosine receptor A2a (Homo sapiens, UniProt P29274); assay: Displacement of [3H]NECA from human A2A adenosine receptor expressed in CHO cells; format: cell-based
Adenosine receptor A3 = Adenosine receptor A3 (Homo sapiens, UniProt P0DMS8); assay: Displacement of [3H]HEMADO from human A3 adenosine receptor expressed in CHO cells; format: cell-based
Adenosine receptor A2b = target: T2, Adenosine receptor A2b (Homo sapiens, UniProt P29275); assay: Antagonist activity at human A2B adenosine receptor assessed as inhibition of NECA-stimulated adenylyl cyclase activity; format: functional
T2 sequence (P29275 whole entry): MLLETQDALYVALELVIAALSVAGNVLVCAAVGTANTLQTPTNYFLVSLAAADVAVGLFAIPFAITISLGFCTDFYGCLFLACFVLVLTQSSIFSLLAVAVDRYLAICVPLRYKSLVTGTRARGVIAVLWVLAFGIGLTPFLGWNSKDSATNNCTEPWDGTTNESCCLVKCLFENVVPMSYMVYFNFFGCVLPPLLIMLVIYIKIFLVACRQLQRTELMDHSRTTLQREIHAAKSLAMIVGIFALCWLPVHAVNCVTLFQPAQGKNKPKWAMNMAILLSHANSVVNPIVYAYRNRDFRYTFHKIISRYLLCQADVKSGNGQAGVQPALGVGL

[1] = target: Adenosine receptors; A1 & A3 (Homo sapiens) (UniProt P30542+P0DMS8); assay: Selectivity index, ratio of Ki for human A1 adenosine receptor to Ki for human A3 adenosine receptor
Homo sapiens = species: Homo sapiens; assay: Selectivity index, ratio of Ki for human A2 adenosine receptor to Ki for human A3 adenosine receptor

Sequence of Adenosine receptor A2a (P29274 whole entry): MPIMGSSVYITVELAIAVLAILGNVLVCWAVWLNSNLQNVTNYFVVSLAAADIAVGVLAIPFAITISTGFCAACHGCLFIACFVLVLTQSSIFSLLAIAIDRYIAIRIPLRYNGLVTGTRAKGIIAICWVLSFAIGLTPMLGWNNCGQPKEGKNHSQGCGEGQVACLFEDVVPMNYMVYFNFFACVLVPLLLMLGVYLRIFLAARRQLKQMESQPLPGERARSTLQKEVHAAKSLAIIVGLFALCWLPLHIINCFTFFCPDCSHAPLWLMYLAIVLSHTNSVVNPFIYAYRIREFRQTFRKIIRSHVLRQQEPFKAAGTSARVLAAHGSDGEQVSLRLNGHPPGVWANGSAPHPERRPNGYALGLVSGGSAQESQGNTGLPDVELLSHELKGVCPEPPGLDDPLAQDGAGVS
Sequence of Adenosine receptor A3 (P0DMS8 whole entry, looked up): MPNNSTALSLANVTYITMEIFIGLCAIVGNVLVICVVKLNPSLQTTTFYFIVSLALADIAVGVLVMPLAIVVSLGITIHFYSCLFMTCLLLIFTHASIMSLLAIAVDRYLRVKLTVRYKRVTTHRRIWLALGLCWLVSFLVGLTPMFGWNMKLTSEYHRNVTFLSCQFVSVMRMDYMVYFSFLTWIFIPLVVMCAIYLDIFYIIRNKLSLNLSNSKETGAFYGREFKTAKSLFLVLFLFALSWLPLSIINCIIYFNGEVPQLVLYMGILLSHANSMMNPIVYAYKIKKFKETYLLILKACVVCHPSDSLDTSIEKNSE

Structure (SMILES) | Ki (Adenosine receptor A1) [µM] | Ki (Adenosine receptor A2a) [µM] | Ki (Adenosine receptor A3) [µM] | Ki (Adenosine receptor A2b) [µM] | Ratio Ki [1] | Ratio Ki (Homo sapiens)
CC(=O)Oc1ccc2cc(-c3cccs3)c(=O)oc2c1OC(C)=O | > 100 | > 100 | 22.5 | > 30 |  | 
O=c1oc2c(O)cccc2cc1-c1cc(Br)cs1 | > 100 | > 100 | 0.746 | > 30 | 130 | 130
CC(=O)Oc1cccc2cc(-c3ccsc3)c(=O)oc12 | > 100 | 14.7 | 1.82 | > 30 |  | 
CC(=O)Oc1cccc2cc(-c3cccs3)c(=O)oc12 | > 100 | 18.8 | 2.58 | > 30 |  | 
O=c1oc2c(O)c(O)ccc2cc1-c1cc(Br)cs1 | 16.3 | 12.2 | 3.4 | > 30 |  | 
O=c1oc2c(O)cccc2cc1-c1ccsc1 | 5.92 | 9.87 | 2.87 | > 30 |  | 
O=c1oc2c(O)c(O)ccc2cc1-c1cccs1 | 3.23 | 9.98 | 4.83 | > 30 |  | 
CC(=O)Oc1cccc2cc(-c3cc(Br)cs3)c(=O)oc12 | > 100 | > 100 | 4.08 | > 30 |  | 
O=c1oc2c(O)cccc2cc1-c1cccs1 | 3.36 | 7.48 | 1.43 | > 30 |  | 
CC(=O)Oc1ccc2cc(-c3cc(Br)cs3)c(=O)oc2c1OC(C)=O | > 100 | > 100 | > 100 | > 30 |  | 
O=c1oc2c(O)c(O)ccc2cc1-c1ccsc1 | 3.36 | 14.7 | 5.31 | > 30 |  | 
CC(=O)Oc1ccc2cc(-c3ccsc3)c(=O)oc2c1OC(C)=O | > 100 | 20.6 | 3.6 | > 30 |  | 
